{
  "source": "paper PMC7277387",
  "about": "“Tailoring Uptake Efficacy of HSV-1 gD Tailoring Uptake Efficacy of Hsv-1 GD Derived Carrier Peptides” (Biomolecules, 2020)",
  "key": {"[1]": {"experiment": "Secondary structure of acetylated peptides by far-UV ECD spectroscopy", "type": "physicochemical", "settings": "acetylated peptide; for α-helix fraction (PEPFIT): far-UV ECD, PEPFIT fit", "procedure": "ECD spectra of acetylated HSV peptides were recorded using a Jasco J-810 and Jasco J-715 spectropolarimeter (Jasco Corporation, Tokyo, Japan) in the λ = 180–270 nm wavelength range using a 0.02 or a 0.1 cm path length quartz cell at room temperature, under constant nitrogen flush with continuous scanning mode. All spectra reported here were obtained as an average of three or five individual scans and corrected with the solvent ECD spectra. The J-810 equipment was calibrated with ammonium α-10-camphor-sulfonate. The samples were dissolved in trifluoroethanol (TFE) (Sigma), distilled water and a 1:1 (v/v) mixture of TFE:water. The solution concentration was in the range of 0.5–0.7 mg/mL (J-810) or ~0.14 mg/mL (J-715) for peptide amides. ECD band intensities are expressed in mean residual molar ellipticity unit. The percentage of the different conformational elements contributing to the ECD spectra was calculated by the MS Excel version of the PEPFIT program developed originally by Reed and Reed. The algorithm estimates the percentage of secondary contents by fitting experimental ECD data to the combination of reference spectra. The best fit is defined by the R^2 value, where an R^2 = 1 corresponds to a perfect match.\nThe helical content of the peptides in different solvents was also estimated employing the simple equation formulated by Chen and Yang: fH = -([Θ]222 + 2340)/30,300 where fH the fraction of helix and [Θ]222 is the measured mean residual ellipticity at 222 nm. It seems that the helical fractions obtained correlate favourably with the results of the curve fitting procedure (Table 2). […]"}, "[2]": {"type": "physicochemical", "settings": "1 mg/mL in serum-free DMEM, 37 °C, samples at 0, 3, 6 and 24 h, RP-HPLC C18, A220", "procedure": "Before the cellular uptake studies the stability of the Cf-labelled synthetic peptides was determined. Peptides were dissolved at 1 mg/mL concentration in serum-free DMEM medium (Lonza, Basel, Switzerland), and incubated at 37 °C for 24 h. Samples for RP-HPLC (Knauer, Berlin, Germany) were taken at 0, 3, 6 and 24 h. Phenomenex Luna C18 column (5 μm, 300 Å, 4.6 mm × 250 mm) (Gen-Lab Ltd., Budapest, Hungary) was applied with a gradient of 0–5 min 5% B eluent elevated to 55% B during 25 min, where eluent A: 0.1% TFA/water, eluent B: 0.1% TFA/acetonitrile–water 80:20 (v/v).\nFigure S12. Stability study of (a) Cf-(236-255) and (b) Cf-(228-247), dissolved in DMEM serum free medium and incubated at 37 °C, followed by RP-HPLC. Samples for RP-HPLC (Knauer, Berlin, Germany) were taken at 0, 3, 6 and 24 hrs. Phenomenex Luna C18 column (5 μm, 300 Å, 4.6 mm × 250 mm) was applied with a gradient of 0-5 min 5% eluent B elevated to 55% B during 25 min, where eluent A: 0.1% TFA / water, eluent B: 0.1% TFA / acetonitrile –water 80:20 (v/v). Control: DMEM serum free medium. In case of Cf-(236-255) evaporation during the incubation caused increasing peptide peaks. Both peptides contain oxidation sensitive Trp residue. Cf -(236-255) was stable even after 24 h, the rising intensity of the peak representing the peptide is due to evap oration during the […]\nto be stable during this interval. […]"}, "[3]": {"system": "SH-SY5Y neuroblastoma cells", "experiment": "Cellular uptake of Cf-labelled peptides by flow cytometry", "settings": "for cellular uptake (in words): Figure S19"}},
  "data": [
    {"compound": "^-1 GKYALADASLKMADPNRF^19 [acetylated HSV-1 gD -1–19 peptide amide for ECD]", "values": [
      {"measurement": "disordered fraction (PEPFIT)", "setting": "[1]; H2O", "value": 64, "unit": "%"},
      {"measurement": "turn fraction (PEPFIT)", "setting": "[1]; H2O", "value": 24, "unit": "%"},
      {"measurement": "β-sheet fraction (PEPFIT)", "setting": "[1]; H2O", "value": 4, "unit": "%"},
      {"measurement": "α-helix fraction (PEPFIT)", "setting": "[1]; H2O, room temperature", "value": 8, "unit": "%"},
      {"measurement": "disordered fraction (PEPFIT)", "setting": "[1]; H2O:TFE 1:1 (v/v)", "value": 10, "unit": "%"},
      {"measurement": "turn fraction (PEPFIT)", "setting": "[1]; H2O:TFE 1:1 (v/v)", "value": 40, "unit": "%"},
      {"measurement": "β-sheet fraction (PEPFIT)", "setting": "[1]; H2O:TFE 1:1 (v/v)", "value": 0, "unit": "%"},
      {"measurement": "α-helix fraction (PEPFIT)", "setting": "[1]; H2O:TFE 1:1 (v/v)", "value": 50, "unit": "%"},
      {"measurement": "disordered fraction (PEPFIT)", "setting": "[1]; TFE", "value": 0, "unit": "%"},
      {"measurement": "turn fraction (PEPFIT)", "setting": "[1]; TFE", "value": 30, "unit": "%"},
      {"measurement": "β-sheet fraction (PEPFIT)", "setting": "[1]; TFE", "value": 0, "unit": "%"},
      {"measurement": "α-helix fraction (PEPFIT)", "setting": "[1]; TFE", "value": 70, "unit": "%"}
    ]},
    {"compound": "CC[C@H](C)[C@H](NC(=O)[C@H](CCCCN)NC(=O)[C@H](CC(C)C)NC(=O)[C@H](CO)NC(=O)[C@H](Cc1ccc(O)cc1)NC(=O)[C@@H](NC(=O)[C@H](C)NC(=O)[C@@H](NC(=O)[C@@H](NC(=O)[C@H](CCCNC(=N)N)NC(=O)[C@H](CCC(N)=O)NC(=O)c1ccc2c(c1)C(=O)OC21c2ccc(O)cc2Oc2cc(O)ccc21)[C@@H](C)O)C(C)C)C(C)C)C(=O)N[C@@H](C)C(=O)NCC(=O)N[C@@H](Cc1c[nH]c2ccccc12)C(=O)N[C@@H](Cc1c[nH]cn1)C(=O)NCC(=O)N1CCC[C@H]1C(=O)N[C@@H](CCCCN)C(=O)N[C@@H](C)C(=O)N1CCC[C@H]1C(N)=O", "note": "[Cf-(228–247)]", "values": [
      {"measurement": "stability of the intact peptide", "setting": "[2]", "value": "decreased intensity of the intact peptide"}
    ]},
    {"compound": "CC[C@H](C)[C@H](NC(=O)[C@H](CCCCN)NC(=O)[C@H](CC(C)C)NC(=O)c1ccc2c(c1)C(=O)OC21c2ccc(O)cc2Oc2cc(O)ccc21)C(=O)N[C@@H](C)C(=O)NCC(=O)N[C@@H](Cc1c[nH]c2ccccc12)C(=O)N[C@@H](Cc1c[nH]cn1)C(=O)NCC(=O)N1CCC[C@H]1C(=O)N[C@@H](CCCCN)C(=O)N[C@@H](C)C(=O)N1CCC[C@H]1C(=O)N[C@@H](Cc1ccc(O)cc1)C(=O)N[C@H](C(=O)N[C@@H](CO)C(=O)N[C@H](C(=O)N[C@@H](CC(C)C)C(=O)N[C@@H](CC(C)C)C(=O)N1CCC[C@H]1C(=O)N1CCC[C@H]1C(N)=O)[C@@H](C)O)[C@@H](C)O", "note": "[Cf-(236–255)]", "values": [
      {"measurement": "stability of the intact peptide", "setting": "[2]", "value": "stable even"}
    ]},
    {"compound": "Cf-^219M*LPRFIPENQRTVAVYSLKI^238 [Cf-(219–238)]", "values": [
      {"measurement": "percentage of Cf-positive live cells", "setting": "[3]; c = 2 μM, 3 h", "value": "15–20%"}
    ]},
    {"compound": "Cf-TKPKGTKPKG [OT10]", "values": [
      {"measurement": "cellular uptake (in words)", "setting": "[3]; c = 10 µM, compared with Cf-HSV peptides", "value": "did not reach the level of internalisation of HSV peptides even with moderate uptake level"},
      {"measurement": "cellular uptake (in words)", "setting": "[3]; c = 50 µM", "value": "effective cellular uptake, though not reaching 100%"}
    ]}
  ]
}
